# Legend:
# Type in all cases: cell-based
# [1] = system: dengue virus type-2 (DENV-2); test: Prophylactic anti-dengue activity, pre-treatment of Vero cells (foci reduction and qRT-PCR)
# Method: (§1) In order to determine the prophylactic anti-dengue activity of baicalein, different concentrations of baicalein (6.25 μg/ml, 12.50 μg/ml, 25.0 μg/ml, and 50.0 μg/ml) were added to the Vero cell monolayers five hours before adding virus. After five hours of pre-infection treatment, the cells were washed twice with phosphate-buffered saline (PBS). Then, 200 FFU (focus-forming units) of dengue virus type-2 (DENV-2) was inoculated to the cells to produce infected cells. The infected cells were incubated at 37° C. for one hour. Then the infected cells were washed two times with PBS to eliminate the unadsorped viruses. Growth medium (the growing medium is but not limited to Eagle's minimal essential medium; EMEM) was supplemented with 2% fetal bovine serum (FBS), 1 mM non-essential amino acid solution, 1 mM L-glutamine solution, and 1.5% carboxymethyl cellulose (CMC) solution) was added to the infected cells in the microplate. The microplate was incubated at 37° C. for four days. The number of viral foci formed and the viral RNA level were determined. The prophylactic activity of baicalein against DENV-2 was measured by the decrease in the number of viral foci and reduction of viral RNA synthesis. The number of DENV-2 foci was counted using a stereomicroscope and the titer of virus was expressed as FFU. The percentage of foci reduction (RF %) compared against controls was calculated as follows: RF (%)=(C−T)×100/C, where, C is the mean of the number of foci for negative control (without baicalein) and T is the mean of the number of foci in treated wells. Reduction in the number of viral foci was further verified using quantitative RT-PCR (qRT-PCR) which determine the copy number of dengue virus specific RNA. The same procedure was repeated to Vero cells which were treated with only virus suspension without baicalein (non-treated cells) and this served as the untreated control.
# [2] = system: dengue virus type-2 (DENV-2); test: Inhibition of DENV-2 attachment to host cells, baicalein added simultaneously with virus
# Method: as §1
# Inhibition of DENV-2 attachment to host cells was evaluated by adding different concentrations (3.12 μg/ml, 6.25 μg/ml, 12.5 μg/ml, 25.0 μg/ml, and 50.0 μg/ml) of baicalein to Vero cells simultaneously with 200 FFU DENV-2. Then, the infected Vero cells were incubated at 37° C. for one hour in the presence of the respective concentration of baicalein. Following after, the infected Vero cells were washed two times using sterile PBS. Growth medium supplemented with 2% fetal bovine serum (FBS), 1 mM non-essential amino acid solution, 1 mM L-glutamine solution, and 1.5% carboxymethyl cellulose (CMC) solution) was added to the infected cells in the microplate. […] The number of viral foci formed and the viral RNA level were determined. The amount of viral RNA synthesis was determined using quantitative real time polymerase chain reaction amplification (qRT-PCR).
# [3] = system: dengue virus type-2 (DENV-2); test: Antiviral activity on DENV-2 replication, baicalein added post-infection
# Method: as §1, with “The same procedure was repeated to Vero cells which were treated with only virus suspension without baicalein (non-treated cells) and this served as the untreated control.” left out
# In order to evaluate the antiviral activity of baicalein after virus attachment to cells, virus inoculum consisting of 200 FFU DENV-2 was added to the monolayer Vero cells and the virus was allowed to adsorp to the Vero cells for one hour at a temperature of 37° C. […] Then, the number of viral foci and viral RNA level were measured.
# [4] = system: dengue virus type-2 (DENV-2); test: Direct virucidal activity against DENV-2
# Method: as §1, with “The same procedure was repeated to Vero cells which were treated with only virus suspension without baicalein (non-treated cells) and this served as the untreated control.” left out
# In order to determine the direct virucidal activity of baicalein against DENV-2, DENV-2 suspension containing 200 FFU was incubated with different concentrations of baicalein (1.56 μg/ml, 3.12 μg/ml, 6.25 μg/ml, 12.50 μg/ml, 25.0 μg/ml) at 37° C. for two hours to produce a treated viral suspension. […] The number of viral foci formed and the viral RNA level were determined.
# [5] = system: Japanese encephalitis virus; test: Antiviral activity on Japanese encephalitis virus replication, baicalein added post-infection; settings: 50 μg/ml, added post-infection to Vero cells, two days, vs non-treated cells
# Method: In order to evaluate the antiviral activity of baicalein after virus attachment to cells, virus inoculum consisting of 200 FFU JE was added to the monolayer Vero cells and the virus was allowed to adsorp to the Vero cells for one hour at a temperature of 37° C. Unadsorped viruses were removed by rinsing the Vero cells with sterile PBS for two times. Different concentrations of baicalein (12.5 μg/ml, 25.0 μg/ml, 50.0 μg/ml and 100.0 μg/ml) were mixed with 1.5% CMC containing cell-growth medium supplemented with 2% FBS respectively before incubated at 37° C. for two days. Then, the number of viral foci was determined.
# [6] = 50 μg/ml, added after virus adsorption to Vero cells, four days, vs non-treated cells
# [7] = 12.5 μg/ml, DENV-2 suspension incubated with baicalein at 37° C. for two hours before infecting Vero cells
compound,measurement,setting,value
"O=c1cc(-c2ccccc2)oc2cc(O)c(O)c(O)c12 [baicalein, 5,6,7-Trihydroxyflavone]",reduction in level of dengue virus type-2 RNA production,"[1]; 50 μg/ml, Vero cells pre-treated five hours before infection, qRT-PCR, vs non-treated cells",39.5%±0.8
same,reduction in number of dengue virus foci formed,"[1]; 50 μg/ml, Vero cells pre-treated five hours before infection, vs non-treated cells",~37%
same,IC50,"[1]; Dengue virus, DENV2, Vero, read-out: IC50 in pretreatment of cells",109 µg/mL
same,decrease in level of DENV-2 RNA production,"[2]; 25 μg/ml, added simultaneously with DENV-2 to Vero cells, qRT-PCR, vs non-treated cells",90.3%±1.6
same,reduction in number of dengue virus foci formed,"[2]; 25 μg/ml, added simultaneously with DENV-2 to Vero cells, vs non-treated cells",76.6%
same,decrease in DENV-2 RNA level at 50 μg/ml compared with 25 μg/ml,"[2]; 50 μg/ml, added simultaneously with DENV-2",Higher decrease in RNA level was observed
same,IC50,"[2]; Dengue virus, DENV2, Vero",7.14 µg/mL
same,decrease in level of DENV-2 RNA production,[3]; [6],84.9%±2.15
same,reduction in number of dengue virus foci formed,[3]; [6],78.3%
same,IC50,"[3]; Dengue virus, DENV2, Vero",6.46 µg/mL
same,decrease in level of DENV-2 RNA production,[4]; [7],99.2%±0.4
same,reduction in number of dengue virus foci formed,[4]; [7],97.93%
same,IC50,"[4]; Dengue virus, DENV2, 2 h",1.55 µg/mL
same,reduction in number of Japanese encephalitis virus foci formed,[5],> 90%

# Reference: US9192640B2, “Antiviral composition against flavivirus” (University Malaya, priority 2012, dated 2015)
